Assay [1] concerns human skeletal myotubes. Briefly: Dex-induced atrophy of human donor skeletal myotubes, myotube diameter. In kind it is cell-based. The following applies: 10 μM Dex and 12.5 μM BML-260 for 24 h. The source says: Figure 9 DUSP22 targeting downregulates atrogene expression in immobilized skeletal muscle and inhibits atrophy in human donor myotubes. (A) Effect of immobilization on skeletal muscle mass using the plastic EP tube method (n = 3). (B) qPCR analysis of DUSP22 expression in the TA muscle (IM = immobilized) (n = 3) (p = 0.018). (C) Plot of DUSP22 expression in relation to TA mass (n = 6). (D) Western blot analysis of DUSP22 expression (n = 3) (p = 0.1699). (E) TA mass (n = 9,7) (p = (Sham = <0.0001, BML-260 = 0.007)). […] Quantification of atrogin-1, MuRF-1, and DUSP22 levels relative to GAPDH are also shown. […]
Human skeletal myoblasts were purchased from Thermo-Fisher Scientific, USA, re-suspended in DM and seeded onto 12-well culture plates at a density of 4.8 × 10^4 cells/well. 72 h later, the differentiated myotubes were treated with 10 μM Dex for 24 h, stained with haematoxylin and eosin (H&E) using a kit (Merck, Germany) and myotube diameter measured by light microscopy analysis of DIC captured images (Olympus CKX41, Olympus Life Science, Japan) and the NIH imaging software Image J 64 (National Institutes of Health, MD, USA). At least 80 myotubes in 5 micrographs were measured in each experimental group.

Assay [2] concerns C2C12 myotubes. Kind of assay: Western blotting of C2C12 myotubes. The assay is classed as cell-based, mouse. The procedure: C2C12 murine skeletal muscle myoblasts were purchased from Koram Biotech Corp. (Seoul, Republic of Korea). Prior to experiments, mycoplasma contamination was eliminated using the MycoXpert Mycoplasma Removal Reagent (MYX-B, CAPRICORN) following the manufacturer’s protocol. To ensure complete removal, all cells were passaged three times after treatment before being used in subsequent experiments. No STR profiling was recently undertaken. Myoblasts were cultured in growth media (GM), containing Dulbecco’s modified Eagle’s medium (DMEM), 10% fetal bovine serum, and 1% penicillin and streptomycin (PenStrep). C2C12 myoblasts were differentiated into myotubes at more than 80% confluence by culture in differentiation media (DM), containing DMEM supplemented with 2% horse serum and PenStrep, for 96 h. To induce atrophy, the myotubes were treated with DM plus 10 μM Dex for 24 h. BML-260 and SP600125 were purchased from Santa Cruz Biotechnology, TX, USA (cat. no. sc-223822 and sc-200635).
Western blotting was carried out using the previously published protocol (Lee et al, [2020]). The NIH imaging software Image J 64 was used for densitometry analysis of the gel bands. The primary and secondary antibodies used in this study are shown in the reagent and tools table. Chemiluminescence was used to detect the secondary antibody. […]
For orientation: Immunoblotting shows a protein as a band on a membrane.

For `O=C(O)c1ccc(N2C(=O)C(=Cc3ccccc3)SC2=S)cc1` (stereo in doubt) [BML-260], the mean myotube diameter result in assay [1] is given as “recovered the mean myotube diameter”. Further, in assay [2] (Dex-treated myotubes), the “atrogin-1, MuRF-1 and DUSP22 levels, western blot” value is listed as “reduced”. The Akt activity result in assay [2] (summary statement of the discussion) is recorded as “not upregulated”.

These data come from PMC12162873, “Modulating phosphatase DUSP22 with BML-260 ameliorates skeletal muscle wasting via Akt independent JNK-FOXO3a repression” (EMBO Molecular Medicine, 2025).
